# Test results: US9187539B2, “Compositions having antiangiogenic activity and uses thereof” (The Johns Hopkins University, priority 2005, dated 2015)
# “Also recorded” adds a separate entry of the source.
# How the values were obtained:
# [1] = system: human umbilical vein endothelial cells (HUVECs); assay: HUVEC proliferation assay (WST-1), 2- and 4-day, 5,000 cells per well; type: cell-based; settings: for concentration-response profile in words: 2- and/or 4-day assay
# Method: The effect of the various peptides on cell proliferation was assayed, by administering the peptides to human umbilical vein endothelial cells (HUVECs) in culture. 45 peptides belonging to four distinct families of proteins including the thrombospondin-1 containing proteins, the C-X-C chemokines, collagen derived peptides and peptides from tissue inhibitors of metalloproteinases were tested. The potency of each of the peptides was tested using the proliferation assay at 2 days and 4 days following administration of the peptides and a similar assay using a different cell density at 3 days. In the four-day experiments, the cell medium was changed after the second day of incubation and the peptide was replaced at the initial concentration together with the medium. TNP-470 is an antiangiogenic compound that was used as a positive control for assessing anti-angiogenic efficacy. The activity of each polypeptide was, therefore, expressed as a percentage of TNP-470 activity, i.e., the optical density obtained experimentally is scaled such that the negative control is 0% and the positive control is 100% as explained below (FIG. 4). Each plate included a well having HUVEC cells that received 0.1 μg/ml TNP-470. For example, a peptide having the same effect on endothelial cell proliferation would have 100% of the activity of TNP-470. Note that activity could exceed 100%. In this assay, the effects of the predicted anti-angiogenic fragments on the ability of HUVECs to proliferate was characterized. […] A commonly used methodology to test for proliferation is to monitor the viability and metabolic activity of endothelial cells, in the presence of the anti-angiogenic fragments at different concentrations and various time steps. The cell proliferation reagent WST-1 was used as a substrate/assay to measure the metabolic activity of viable cells. WST-1 is a colorimetric, non-radioactive assay and can be performed in a microplate. It is suitable for measuring cell proliferation, cell viability or cytotoxicity. The assay is based on the reduction a red tetrazolium salt, WST-1, by viable, metabolically active, cells to form the yellow formazan crystals soluble in the cell medium. […] The cells are cultured described above. Once cells have reached 80% confluence they are trypsinized and resuspended in EGM-2. The cell density is estimated using a hemocytometer. All of the endothelial cells used were from passage 4 to passage 8. The proliferation assay involved two steps. During the first step the cells, approximately 5,000 cells per well for a 96-well plate, were seeded without any extracellular matrix substrate on the wells overnight (8 hours). The initial cell culture medium was removed using a multichannel pipetor and the candidate peptides were applied. A logarithmic scale of four different concentrations of 0.01 μg/ml, 0.1 μg/ml, 1 μg/ml and 10 μg/ml of each peptide was used. Each of the concentrations was tested in quadruplicate. The viability of the cells was challenged at 2 and 4 days upon the application of the peptide. As a positive control for decreased viability, 0.1 μg/ml of TNP-470 (O-(chloro-acetyl-carbamoyl) fumagillol, a synthetic analogue of fumagillin; TNP-470 was provided by NCI, was provided along with the medium, and as a negative control for normal viability, the cells were cultured without the addition of any agent. The cells were then incubated with 10 μl per well of the red WST-1 reagent for approximately 2 to 4 hours. During this incubation period, viable cells converted, in their mitochondria, the red WST-1 to the yellow formazan crystals which dissolve in the medium. The second step of the assay involved the quantification of the changes in proliferation which was performed by measuring the change in color after lysing the cells. The samples were read using the ELISA plate reader Victor3 V (Perkin Elmer) at a wavelength of […]. The amount of color produced is directly proportional to the number of viable cells. […]
# [2] = system: human umbilical vein endothelial cells (HUVECs); assay: HUVEC proliferation assay (WST-1), 3-day, 2,000 cells per well; type: cell-based; settings: 3-day assay; for anti-proliferative activity in words: overall; for anti-proliferative activity (maximum or stated level), scaled so that TNP-470 = 100%: 0.01-30 μg/ml; for anti-proliferative activity in words at high peptide concentration: high/highest applied concentration (30 μg/ml where stated)
# Method: In addition to the 2 and 4 day proliferation experiment where 5,000 cells per well were seeded, the effects of the peptides on the proliferating ability of HUVECs were also studied using cells seeded at a density of 2,000 cells per well. This lower cell seeding density allowed the experiment to be extend for an additional day without changing the cell medium. The effects of the peptides when applied to the cells for 3 consecutive days is also reported herein. The proliferation assay again involved two steps. During the first step 2,000 cells per well for a 96-well plate were seeded without any extracellular matrix substrate on the wells overnight (8 hours). The initial cell culture medium was removed using a multichannel pipetor. To synchronize the cells, the cells were serum starved for 4 hours and the candidate peptides were applied. During serum starvation the cell culture medium was changed from a “full” medium to the “basal” medium, which contained no growth factors or serum. Serum starvation for 4 hours had no effect on the proliferation of the cells. For this assay, the logarithmic scale of four different concentrations of 0.01 μg/ml, 0.1 μg/ml, 1 μg/ml and 10 μg/ml of peptide was used. In addition, a larger concentration of 30 μg/ml peptide was also applied. Each of the concentrations was again tested in quadruplicate. After the third day of peptide application the WST-1 dye was applied for approximately 2 to 4 hours (usually after 3 hours the color saturates). The proliferation was later tested on the ELISA plate reader as described for the 2 and 4 day assay. Note that the 2- and 4-day and the 3-day protocols differed in that 5,000 cells/well versus 2,000 cells/well seeded, respectively.
# [3] = 4 days of peptide application, 0.01-10 μg/ml
# [4] = 10 μg/ml peptide, 2- and 4-day assay
# [5] = 2- and 4-day assay, day not specified or constant throughout the four days
# [6] = 2 days of peptide application, 0.01-10 μg/ml
# [7] = 2- and 4-day assay, day not specified
sequence,measurement,setting,value
"AAPFLECQGRQGTCHFFAN [SEQ ID NO: 87, α4CIV CAA56943.1: 1628-1646]",anti-proliferative activity in words,[1]; 2 days of peptide application,intermediate activity
same,concentration-response profile in words,[2],activity increased with increasing the applied peptide concentration
same,anti-proliferative activity in words,[2],similar
"ASWSACSVSCGGGARQRTR [SEQ ID NO: 45, Fibulin-6 CAC37630.1: 1745-1763]",concentration-response profile in words,[1],biphasic activity
same,peptide concentration at which maximum activity was observed,[1]; 2 days,0.1 µg/mL
same,"anti-proliferative activity (maximum or stated level), scaled so that TNP-470 = 100%",[1]; [3],approximately 30%
same,concentration-response profile in words,[2],biphasic response
same,peptide concentration at which maximum activity was observed,[2],0.1 µg/mL
same,"anti-proliferative activity (maximum or stated level), scaled so that TNP-470 = 100%",[2],20%
"DGRELCLDPKENWVQRVVEKFLK [SEQ ID NO: 110, IL-8/CXCL8 AAP35730.1: 72-94]","anti-proliferative activity, TNP-470 = 100%",[1]; [4],20%
same,anti-proliferative activity in words at high peptide concentration,[2],higher
"DGRKICLDPDAPRIKKIVQKKL [SEQ ID NO: 114, THBG-β/CXCL7 AAB46877.1: 100-121]","anti-proliferative activity, TNP-470 = 100%",[1]; [4],15%
"ECLWTDMLSNFGYPGYQSKHYACI [SEQ ID NO: 155, TIMP 3 AAA21815.1: 148-171]","anti-proliferative activity (maximum or stated level), scaled so that TNP-470 = 100%",[1]; [5],30%
same,"anti-proliferative activity (maximum or stated level), scaled so that TNP-470 = 100%",[1]; [6],30%
"GPWAPCSASCGGGSQSRS [SEQ ID NO: 48, Papilin NP_775733.2: 342-359]","anti-proliferative activity (maximum or stated level), scaled so that TNP-470 = 100%",[1]; [5],30%
"GPWEDCSVSCGGGEQLRSR [SEQ ID NO: 63, SCO-spondin XP_379967.2: 3781-3799]","anti-proliferative activity (maximum or stated level), scaled so that TNP-470 = 100%",[1]; [5],~15%
same,anti-proliferative activity in words,"[1]; 2- and 4-day assay, overall",low anti-proliferative activity
same,"anti-proliferative activity (maximum or stated level), scaled so that TNP-470 = 100%",[2],25%
"GPWEPCSVTCSKGTRTRRR [SEQ ID NO: 49, Properdin AAP43692.1: 143-161]",peptide concentration at which maximum activity was observed,[1]; [7],0.01 µg/mL
same,"anti-proliferative activity (maximum or stated level), scaled so that TNP-470 = 100%",[1]; [5],30%
same,concentration-response profile in words,[1],biphasic response
same,"anti-proliferative activity (maximum or stated level), scaled so that TNP-470 = 100%",[1]; [3],20%
same,anti-proliferative activity in words at high peptide concentration,[2],significantly increased
"GPWERCTAQCGGGIQARRR [SEQ ID NO: 60, Semaphorin 5A NP_003957.1: 660-678]",peptide concentration at which maximum activity was observed,[1]; [7],higher than 1 μg/ml
same,"anti-proliferative activity (maximum or stated level), scaled so that TNP-470 = 100%",[1]; [5],25%
same,anti-proliferative activity in words,[1]; 2 days of peptide application,minimum anti-proliferative activity
same,anti-proliferative activity in words,[1]; 4 days of peptide application,intermediate activity
same,"anti-proliferative activity (maximum or stated level), scaled so that TNP-470 = 100%",[2],35%
"GPWGDCSRTCGGGVQFSSR [SEQ ID NO: 7, ADAMTS-4 CAH72146.1: 527-545]",peptide concentration at which maximum activity was observed,[1]; 4 days,10 µg/mL
same,"anti-proliferative activity (maximum or stated level), scaled so that TNP-470 = 100%",[1]; [3],35%
"GPWGECSRTCGGGVQFSHR [SEQ ID NO: 14, ADAMTS-8 Q9UP79: 534-552]",anti-proliferative activity in words at 10 μg/ml,[1]; [4],reduced
same,concentration-response profile in words,[1],biphasic response
same,peptide concentration at which maximum activity was observed,[1]; 2 days,1 µg/mL
same,"anti-proliferative activity (maximum or stated level), scaled so that TNP-470 = 100%",[1]; [6],35%
same,peptide concentration at which maximum activity was observed,[1]; 4 days,1 µg/mL
same,"anti-proliferative activity (maximum or stated level), scaled so that TNP-470 = 100%",[1]; [3],30%
same,concentration-response profile in words,[2],biphasic response
"KCHGHGVCNSNKN [SEQ ID NO: 1, ADAM-9 Q13443: 649-661]","anti-proliferative activity (maximum or stated level), scaled so that TNP-470 = 100%",[1]; [5],~20%
"LCMTKSDCYQPAWYIHEGFYNLSG [SEQ ID NO: 159, reference compound]",anti-proliferative activity in words,"[1]; 2- and 4-day assay, overall",not statistically significant
"LRRFSTMPFMFCNINNVCNF [SEQ ID NO: 89, α5CIV AAC27816.1: 1510-1529]","anti-proliferative activity, TNP-470 = 100%",[1]; [4],80%
same,anti-proliferative activity in words at high peptide concentration,[2],increased even more
same,anti-proliferative activity in words,[2],reproducible
"MQCHGRGVCNNRKN [SEQ ID NO: 2, ADAM-12 O43184: 662-675]",anti-proliferative activity in words,[1]; 2 days of peptide application,showed activity
same,concentration-response profile in words,[2],activity increasing as the peptide concentration increased
"NGKEICLDPEAPFLKKVIQKILD [SEQ ID NO: 95, ENA-78/CXCL5 AAP35453.1: 86-108]","anti-proliferative activity, TNP-470 = 100%","[1]; 0.01 μg/ml peptide, 2 days",approximately 30%
same,anti-proliferative activity in words at high peptide concentration,[2],high activity
same,anti-proliferative activity in words,[2],reproducible over all tested concentrations
"NGKKACLNPASPMVQKIIEKIL [SEQ ID NO: 106, GRO-γ/MIP-2β/CXCL3 AAA63184.1: 79-100]",peptide concentration at which maximum activity was observed,[1]; [7],0.01 µg/mL
same,"anti-proliferative activity (maximum or stated level), scaled so that TNP-470 = 100%",[1]; [3],15%
same,peptide concentration at which maximum activity was observed,[2],0.01 µg/mL
"NGKQVCLDPEAPFLKKVIQKILDS [SEQ ID NO: 98, GCP-2/CXCL6 AAH13744.1: 86-109]","anti-proliferative activity, TNP-470 = 100%","[1]; 0.01 μg/ml peptide, 2 days",30%
same,anti-proliferative activity in words at 10 μg/ml,[1]; [4],Virtually no anti-proliferative activity
same,"anti-proliferative activity (maximum or stated level), scaled so that TNP-470 = 100%",[1]; [5],35%
same,concentration-response profile in words,[1],biphasic behavior; also recorded: biphasic response
same,concentration-response profile in words,[2],biphasic behavior
same,anti-proliferative activity in words at high peptide concentration,[2],increased
"NGRKACLNPASPIVKKIIEKMLNS [SEQ ID NO: 102, GRO-α/CXCL1 AAP35526.1: 80-103]",anti-proliferative activity in words at 10 μg/ml,[1]; [4],statistically insignificant
same,"anti-proliferative activity (maximum or stated level), scaled so that TNP-470 = 100%",[1]; [5],15%
same,anti-proliferative activity in words at high peptide concentration,[2],significantly increased
"QDVFNKDGKVILLSPQAICLPKEK [SEQ ID NO: 158, reference compound]",anti-proliferative activity in words,"[1]; 2- and 4-day assay, overall",not statistically significant
"QPWGTCSESCGKGTQTRAR [SEQ ID NO: 44, Fibulin-6 CAC37630.1: 1688-1706]",concentration-response profile in words,[1],biphasic behavior
same,peptide concentration at which maximum activity was observed,[1]; 4 days,0.01 µg/mL
same,"anti-proliferative activity (maximum or stated level), scaled so that TNP-470 = 100%",[1]; [3],~40%
same,concentration-response profile in words,[2],activity increased with increasing peptide concentration
"SPWTKCSATCGGGHYMRTR [SEQ ID NO: 61, Semaphorin 5A NP_003957.1: 848-866]",anti-proliferative activity in words,"[1]; 2- and 4-day assay, overall",no anti-proliferative activity
"SQWSPCSRTCGGGVSFRER [SEQ ID NO: 47, Papilin NP_775733.2: 33-51]",anti-proliferative activity in words,"[1]; 2- and 4-day assay, overall",minimal anti-proliferative activity
"TSWSPCSASCGGGHYQRTR [SEQ ID NO: 62, Semaphorin 5B AAQ88491.1: 916-934]","anti-proliferative activity (maximum or stated level), scaled so that TNP-470 = 100%",[1]; [5],10%
